{"source": "patent US7314747B1", "about": "“SMRT co-repressors, transcriptional co-repressors that interact with nuclear hormone receptors” (The Salk Institute for Biological Studies, priority 1995, dated 2008)", "key": {"[1]": {"molecular_target": "T1, EcR:USP complex with SMRTER ERID1/ERID2 (Drosophila melanogaster, UniProt P34021)", "T1 construct": "made in house; host or cells: EcR and USP: TNT (Promega) coupled transcription-translation; GST fusions: E. coli DH5", "T1 sequence (P34021 1-878)": "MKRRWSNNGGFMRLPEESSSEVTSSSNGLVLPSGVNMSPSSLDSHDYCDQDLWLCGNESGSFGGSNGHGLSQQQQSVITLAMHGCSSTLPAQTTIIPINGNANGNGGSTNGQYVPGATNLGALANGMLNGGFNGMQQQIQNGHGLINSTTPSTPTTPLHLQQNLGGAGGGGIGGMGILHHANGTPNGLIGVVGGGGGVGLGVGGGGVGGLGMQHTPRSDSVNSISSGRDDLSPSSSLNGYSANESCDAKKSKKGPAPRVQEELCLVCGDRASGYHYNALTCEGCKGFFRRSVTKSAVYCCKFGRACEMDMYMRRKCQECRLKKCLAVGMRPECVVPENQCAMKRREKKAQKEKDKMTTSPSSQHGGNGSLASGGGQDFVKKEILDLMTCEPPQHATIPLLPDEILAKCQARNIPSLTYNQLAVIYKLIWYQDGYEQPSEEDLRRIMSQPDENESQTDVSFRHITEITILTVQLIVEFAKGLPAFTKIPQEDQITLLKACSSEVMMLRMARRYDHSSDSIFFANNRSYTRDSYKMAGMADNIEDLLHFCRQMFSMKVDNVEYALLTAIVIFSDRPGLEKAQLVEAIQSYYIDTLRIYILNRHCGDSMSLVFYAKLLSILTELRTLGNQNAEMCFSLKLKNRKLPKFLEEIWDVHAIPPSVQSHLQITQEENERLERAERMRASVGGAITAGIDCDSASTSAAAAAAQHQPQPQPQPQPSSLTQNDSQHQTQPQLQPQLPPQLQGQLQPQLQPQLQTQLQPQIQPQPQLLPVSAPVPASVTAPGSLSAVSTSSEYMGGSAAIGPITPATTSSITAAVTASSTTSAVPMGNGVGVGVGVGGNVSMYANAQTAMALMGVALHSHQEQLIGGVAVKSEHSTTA", "T1 sequence (P20153 1-508 partner)": "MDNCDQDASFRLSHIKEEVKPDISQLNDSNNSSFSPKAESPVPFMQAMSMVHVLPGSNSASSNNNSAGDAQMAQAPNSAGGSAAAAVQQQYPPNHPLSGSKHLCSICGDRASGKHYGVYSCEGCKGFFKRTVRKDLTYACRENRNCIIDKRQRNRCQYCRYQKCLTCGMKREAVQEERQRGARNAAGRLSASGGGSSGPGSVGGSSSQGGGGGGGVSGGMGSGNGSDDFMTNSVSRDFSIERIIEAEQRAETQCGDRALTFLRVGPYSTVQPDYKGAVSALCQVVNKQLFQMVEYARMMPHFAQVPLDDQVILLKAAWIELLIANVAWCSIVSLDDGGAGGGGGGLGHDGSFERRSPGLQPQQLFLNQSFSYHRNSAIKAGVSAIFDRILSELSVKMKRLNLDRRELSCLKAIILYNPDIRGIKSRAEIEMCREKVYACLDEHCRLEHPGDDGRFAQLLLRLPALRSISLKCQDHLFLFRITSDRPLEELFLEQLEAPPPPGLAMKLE", "assay": "In vitro GST pull-down of 35S-labeled EcR by GST-ERID1 / GST-ERID2", "assay_type": "binding", "details": "3 μM, when USP is present", "protocol": "Glutathione S-transferase fusion proteins, including GST-X, GST-ERID1 (amino acids 1698-2063 of SEQ ID NO:1), and GST-ERID2 (amino acids 2951-3038 of SEQ ID NO:1), were expressed in E. coli DH5 cells, and extracts were affinity purified by binding to glutathione Sepharose 4B beads. Bound proteins used as affinity matrices in pull-down experiments were first equilibrated with the binding buffer (20 mM HEPES [pH 7.9], 150 mM NaCl, 1 mM EDTA, 4 mM MgCl2, 1 mM DTT, 0.06% NP40, 10% Glycerol, 0.25 mM PMSF, 1 mg BSA). For pull-down assays using GST-ERID1 (amino acids 1698-2063 of SEQ ID NO:1) and GST-ERID2 (amino acids 2951-3038 of SEQ ID NO:1), additional hsp27EcRE (0.05 μg/ml) was added to the binding buffer. In this experiment, […] of 50% GST-protein beads slurry, containing approximately 1 μg of proteins, were incubated with 10 μl of 35S-methionine-labeled proteins in 300 μl of the binding buffer (with or without 3 μM of MurA as indicated) for 30 min at room temperature. After the incubation, beads were washed three times with the binding buffer (with or without ligand) and resuspended in SDS-PAGE sample buffer before loading. After electrophoresis, bound radio-labeled proteins were visualized by autoradiography. […]"}, "[2]": {"molecular_target": "T2, EcR interaction with E52 or SMRT (Drosophila melanogaster, UniProt P34021)", "T2 construct": "the region corresponding to amino acids 223-878 of EcRB1; expressed in transfected cells; host or cells: Y190 yeast cells", "T2 sequence (P34021 223-878)": "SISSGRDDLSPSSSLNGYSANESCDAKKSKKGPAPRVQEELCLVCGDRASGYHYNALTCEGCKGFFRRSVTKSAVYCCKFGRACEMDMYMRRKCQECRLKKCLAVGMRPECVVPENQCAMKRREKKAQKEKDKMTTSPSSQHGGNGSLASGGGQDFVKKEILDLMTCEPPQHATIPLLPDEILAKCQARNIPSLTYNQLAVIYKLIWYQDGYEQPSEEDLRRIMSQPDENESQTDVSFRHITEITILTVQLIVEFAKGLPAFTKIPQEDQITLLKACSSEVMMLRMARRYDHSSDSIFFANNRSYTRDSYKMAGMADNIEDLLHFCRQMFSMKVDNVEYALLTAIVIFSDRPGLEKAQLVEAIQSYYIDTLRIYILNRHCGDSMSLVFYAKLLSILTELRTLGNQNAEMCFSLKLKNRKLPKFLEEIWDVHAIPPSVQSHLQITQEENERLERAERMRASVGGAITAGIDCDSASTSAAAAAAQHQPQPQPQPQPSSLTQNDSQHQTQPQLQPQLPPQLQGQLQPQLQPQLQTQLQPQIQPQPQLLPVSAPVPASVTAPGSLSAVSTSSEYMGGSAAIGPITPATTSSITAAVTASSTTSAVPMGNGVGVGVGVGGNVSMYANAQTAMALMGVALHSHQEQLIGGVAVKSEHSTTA", "assay": "Yeast two-hybrid assay, E52-EcR or SMRT-EcR interaction", "assay_type": "cell-based", "details": "3 μM ligand", "protocol": "Transformants were selected onto DO-Leu-Trp-His plates containing 40 mM 3-aminotriazole (Sigma) for 3-4 days. Surviving yeast colonies were picked as primary positives and restreaked on selection plates to isolate single clones. Activation domain plasmids were rescued from the selected positive transformants for further analysis. Each clone was evaluated by testing its potential interaction with several other nuclear receptors using the yeast two-hybrid assays. […] Quantitative liquid assay of β-galactosidase was performed on positive clones 16 hr after treating the yeast cells with no ligand, or with 3 μM ligand."}}}
{"smiles": "CC(C)CC[C@@H](O)[C@](C)(O)[C@H]1CC[C@@]2(O)C3=CC(=O)[C@]4(O)C[C@@H](O)[C@@H](O)C[C@]4(C)[C@H]3[C@H](O)C[C@]12C", "note": "[Muristerone A]", "values": [{"measurement": "effect of ligand on GST-ERID/EcR pull-down complex", "setting": "[1]", "result": "disrupted"}, {"measurement": "dissociation of the interaction between E52 and EcR by ligand", "setting": "[2]", "result": "not dissociated"}, {"measurement": "dissociation of the interaction between SMRT and EcR by ligand", "setting": "[2]", "result": "not dissociated"}]}
